From PubChem BioAssay (NCI)
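Five concentrations, 48 hours, 96-well plates. Abbreviation: GI50, concentration required for 50% inhibition of growth. TGI denotes the concentration required for complete inhibition of growth.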

Legend:
Assay in all cases: inhibition of tumour cell growth, NCI panel, 48 h
[1] = system: SR leukemia
[2] = system: HCT-116 colon
[3] = system: NCI-H23 lung
[4] = system: LOX IMVI melanoma
[5] = system: SF-268 CNS
[6] = system: HOP-62 NSCLC
[7] = system: NCI-H522 lung
[8] = system: SW-620 colon
[9] = system: MOLT-4 leukemia
[10] = system: OVCAR-8 ovarian

Compound	GI50 [1] [µM]	TGI [1] [µM]	GI50 [2] [µM]	TGI [2] [µM]	GI50 [3] [µM]	TGI [3] [µM]	GI50 [4] [µM]	TGI [4] [µM]	GI50 [5] [µM]	TGI [5] [µM]	GI50 [6] [µM]	TGI [6] [µM]	GI50 [7] [µM]	TGI [7] [µM]	GI50 [8] [µM]	TGI [8] [µM]	GI50 [9] [µM]	TGI [9] [µM]	GI50 [10] [µM]	TGI [10] [µM]
N#Cc1cc(S(=O)(=O)Nc2nc3ccccc3s2)c(SCc2ccccc2)cc1Cl	37.7	> 100	16.1	32.5	22.4	57.7	20.8	48.2	24.7	78.5	24.5	45.7	11.3	32.3	19.8	43.7	27.4	74.4	6.12	39.8
CC1(C)OC(=O)C=C([O-])O1.CC1(C)OC(=O)C=C([O-])O1.CC[O-].CC[O-].[Ti+4]	> 100	> 100	> 100	> 100	> 100	> 100	> 100	> 100	> 100	> 100	> 100	> 100	> 100	> 100	> 100	> 100	> 100	> 100	> 100	> 100
CCc1nc(N)nc(N)c1-c1ccc(Cl)c(N=CN(C)C)c1		> 83.4		> 100		> 81.5		> 100		> 100		> 100		62.7		> 100		> 100		> 100
